Source: patent publication US11938129B2, “Methods and compositions for the treatment of vascular disease” (THE GENERAL HOSPITAL CORPORATION, priority 2018, dated 2024)

Assays:
[1] = test system: TGF-β signaling; test: TGF-β activity by phosphorylation of Smad2 or Erk1 in aortas of treated mice; format: in vivo, mouse; details: aortic tissue of treated Fbn1C1039G/+ mice
Experimental: (§1) Latex was injected into the left ventricular apex under low pressure until it was visible in the femoral artery. Animals were then fixed in Formalin (10%) for 24 hours before transfer to 70% ethanol for dissection and storage. Aortas were then removed from the animals or dissected in situ for photography prior to paraffinization and sectioning (10 pM). Slides were produced for tissue staining or stained with standard stains including H&E staining, collagen deposition (Trichrome Stain (Masson) Kit, Sigma, USA), elastin (Verhoeff-Van Gieson, Thermo Scientific, MI, USA) or F-actin (ActinGreen™ 488 ReadyProbes, ThermoFisher Scientific, USA) for quantitative analysis. Elastin integrity score was rated by blinded observers and graded on an arbitrary scale of 5 (indicating high quality elastic fiber) to 1 (indicating severe elastin fragmentation). For nuclear staining aortas from human and mice were cryosectioned using OCT standard protocol as described previously (Fischer et al., 2008). Cohorts of 8-week-old wild-type or Fbn1cw3gGi+ mice were treated with oral administration in drinking water of either Losartan or GSK343 for 20 weeks (FIG. 5). […] Then 200 mL of drinking water was supplemented with 250 pL of GSK343 stock solution. […] Aortic dimensions were monitored monthly by echocardiograms as mentioned above.

[2] = test system: Mmp9; test: immunofluorescence of Mmp9 in ligated carotid; format: in vivo, mouse; details: arterial media and intima of carotid arteries
Experimental: (§2) All mice used in this study were cared for under strict compliance with the Partners Institutional Animal Care and Use Committee (IACUC), regulated by the United States Public Health Service (USPHS). Carotid ligations were performed in 10 week old mice. Briefly, animals were anesthetized using intraperitoneal ketamine/xylazine (80 and 12 mg/kg, respectively) followed by a small incision in the neck to expose the carotid artery. Then the left carotid was ligated at the carotid bifurcation level using a 8-0 silk suture. At 21 days mice were sacrificed and carotids were collected for histological analysis. Approximately 98% of wild type mice developed stenotic lesions. Mice that developed thrombosis of the ligated carotid were excluded from the study (−1¬2%). Malatl knockout mice were kindly provided by Dr. David Spector (Cold Spring Harbor, N.Y.). Hdac9 flox/flox/Talgn-cre mice were generated as previously reported (10). […]
(§3) Left and right carotids were cryosectioned using OCT standard protocol and sectioning. […] Slides 1, 5, 10, and 15 were H&E stained for quantification of neointima. For quantification of the neointima, internal and external elastic lamina perimeters and medial thickness from 4 quadrants were measured and averaged using Image J software from the National Institutes of Health (NIH). […]

[3] = test system: PDGFR; test: immunofluorescence of p-PDGFR in ligated carotid; format: in vivo, mouse; details: media and intima of carotid arteries
Experimental: as §2, §3

[4] = test system: aortic aneurysm in Fbn1C1039G/+ mice; test: experimental aortic aneurysm in Fbn1C1039G/+ mice: echocardiographic aortic dimensions; format: in vivo, mouse; details: Fbn1C1039G/+ mice treated from two to six months of life, drinking water
Description: Dimensions from each animal represent averages of measurements made on still frames in systole of the maximal internal diameter of the aortic valve annulus, aortic sinuses, sinotubular junction, or ascending aorta by a cardiologist blinded to genotype. The aorta was imaged using a standard parasternal long axis view. Based on historic controls, the mean diameter of the wild type aortic root at 4 months of life is 1.73+/-0.2 mm while in our disease model (Fbn1ci°[…]/+) the mean diameter is 2.15+/-0.3 mm. […] Nair hair removal cream was used on all mice the day prior to echocardiograms. All echocardiograms were performed on awake, unsedated mice using the Visualsonics Vevo imaging system and a 30 MHz transducer. All CT images were acquired using an Inveon small animal micro CT (Siemens Medical Solutions Inc., Malven, Pa.). All mice received intravenous iodinated contrast (Isovue-370, Bracco Diagnostic Inc.) at 20 pL/min during the scan. […] Images were visualized and analyzed in OsiriX software. Cohorts of 8-week-old wild-type or Fbn1cw3gGi+ mice were treated with oral administration in drinking water of either Losartan or GSK343 for 20 weeks (FIG. 5). […] Then 200 mL of drinking water was supplemented with 250 pL of GSK343 stock solution. […] Aortic dimensions were monitored monthly by echocardiograms as mentioned above.

[5] = test system: other histone methyltransferases; details: cited from earlier work
[6] = test system: SM22a; test: immunostaining of SM22a protein in aortas of treated Fbn1C1039G/+ mice; format: in vivo, mouse; details: compared to control Fbn1C1039G/+ mice
Experimental: as §1

For `CCCc1cc(C)[nH]c(=O)c1CNC(=O)c1cc(-c2ccnc(N3CCN(C)CC3)c2)cc2c1cnn2C(C)C` [GSK343], the “TGF-β activity as assessed by phosphorylation of Smad2 or Erk1 protein” value [1] was “did not suppress and not”, the “accumulation of Mmp9” value [2] was “decreased accumulation” and the “phosphorylation of PDGFR” value [3] was “dramatic reduction”. For the same compound, the aortic dimensions [4] was “ability to improve aortic dimensions”, the “selectivity against other histone methyltransferases” value [5] was at least 1000 fold and the “SM22a protein expression (immunostaining of aortas)” value [6] was “recovery of SM22a protein expression”.
